Measured values published in PMC6010127, “Sulfonamide inhibition studies of two β-carbonic anhydrases from the ascomycete fungus Sordaria macrospora, CAS1 and CAS2” (Journal of Enzyme Inhibition and Medicinal Chemistry, 2018).

Legend:
[1] = target: T1, CAS2 (Sordaria macrospora, UniProt C1L336); experiment: biochemical; parameters: stopped-flow CO2 hydration assay, phenol red 557 nm, pH 8.3, 15 min preincubation; KI by Cheng-Prusoff
T1 construct: recombinant, obtained in-house
T1 sequence (C1L336 54-284): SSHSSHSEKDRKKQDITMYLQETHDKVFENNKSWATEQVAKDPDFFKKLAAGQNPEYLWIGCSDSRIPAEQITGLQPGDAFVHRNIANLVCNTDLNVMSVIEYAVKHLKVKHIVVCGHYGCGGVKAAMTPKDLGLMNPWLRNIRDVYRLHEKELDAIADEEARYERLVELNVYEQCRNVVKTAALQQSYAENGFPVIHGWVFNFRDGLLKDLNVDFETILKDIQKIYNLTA
Experimental: An Applied Photophysics stopped-flow instrument has been used for assaying the CA catalysed CO2 hydration activity. Phenol red (at a concentration of 0.2 mM) has been used as indicator, working at the absorbance maximum of 557 nm, with 20 mM TRIS (pH 8.3) as buffer, and 20 mM Na2SO4 (for maintaining constant the ionic strength), following the initial rates of the CA-catalysed CO2 hydration reaction for a period of 10–100 s. The CO2 concentrations ranged from 1.7 to 17 mM for the determination of the kinetic parameters and inhibition constants. […] The uncatalysed rates were determined in the same manner and subtracted from the total observed rates. Stock solutions of inhibitor (0.1 mM) were prepared in distilled-deionized water and dilutions up to 0.01 nM were done thereafter with the assay buffer. Inhibitor and enzyme solutions were preincubated together for 15 min at room temperature prior to assay, in order to allow for the formation of the E–I complex. The inhibition constants were obtained by non-linear least-squares methods using PRISM 3 and the Cheng–Prusoff equation, as reported earlier, and represent the mean from at least three different determinations. All CA isofoms were recombinant ones obtained in-house as reported earlier[2]^,[9].

[2] = target: T2, CAS1 (Sordaria macrospora, UniProt F7VW42); experiment: biochemical; parameters: stopped-flow CO2 hydration assay, phenol red 557 nm, pH 8.3, 15 min preincubation; KI by Cheng-Prusoff; conditions: read-out: KI^a (nM) / CAS1^c / β
T2 construct: gene SMAC_03420; recombinant, obtained in-house
T2 sequence (F7VW42 1-234): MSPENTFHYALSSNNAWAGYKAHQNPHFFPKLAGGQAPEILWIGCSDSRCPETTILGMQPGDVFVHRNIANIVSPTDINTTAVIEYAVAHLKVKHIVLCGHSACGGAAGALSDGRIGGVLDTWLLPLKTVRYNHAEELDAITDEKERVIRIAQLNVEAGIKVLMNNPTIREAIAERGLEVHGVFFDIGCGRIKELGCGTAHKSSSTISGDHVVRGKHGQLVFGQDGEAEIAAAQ
Experimental: An Applied Photophysics stopped-flow instrument has been used for assaying the CA catalysed CO2 hydration activity. Phenol red (at a concentration of 0.2 mM) has been used as indicator, working at the absorbance maximum of 557 nm, with 20 mM TRIS (pH 8.3) as buffer, and 20 mM Na2SO4 (for maintaining constant the ionic strength), following the initial rates of the CA-catalysed CO2 hydration reaction for a period of 10–100 s. The CO2 concentrations ranged from 1.7 to 17 mM for the determination of the kinetic parameters and inhibition constants. For each inhibitor at least six traces of the initial 5–10% of the reaction have been used for determining the initial velocity. The uncatalysed rates were determined in the same manner and subtracted from the total observed rates. Stock solutions of inhibitor (0.1 mM) were prepared in distilled-deionized water and dilutions up to 0.01 nM were done thereafter with the assay buffer. Inhibitor and enzyme solutions were preincubated together for 15 min at room temperature prior to assay, in order to allow for the formation of the E–I complex. The inhibition constants were obtained by non-linear least-squares methods using PRISM 3 and the Cheng–Prusoff equation, as reported earlier, and represent the mean from at least three different determinations. All CA isofoms were recombinant ones obtained in-house as reported earlier[2]^,[9].

[3] = target: T1, CAS2; experiment: stopped-flow CO2 hydration assay; format: biochemical; conditions: read-out: KI^a (nM) / CAS2^c / β
[4] = target: T2, CAS1; experiment: stopped-flow CO2 hydration assay; format: biochemical
[5] = read-out: KI^a (nM) / CAS2^c / β, inhibitor
[6] = read-out: KI^a (nM) / CAS1^c / β

Row | Ki [2] | Ki [3] | Ki [1] | SMILES | also measured
1 |  |  |  | Nc1ccc(S(N)(=O)=O)cc1Br [compound 9] | Ki [1, 5]: 12000 nM
2 | 2110 nM | 410 nM |  | NS(=O)(=O)c1nnc(NS(=O)(=O)c2ccccc2)s1 [BZA, benzolamide] | 
3 | 1720 nM | 670 nM |  | CCN1CCCC1CNC(=O)c1cc(S(N)(=O)=O)ccc1OC (stereo not shown) [SLP, sulpiride] | 
4 |  |  |  | Nc1ccc(S(N)(=O)=O)cc1F [compound 7, 3-fluorosulfanilamide] | Ki [4, 6]: 43.2 nM
5 | 1820 nM |  | 1890 nM | NS(=O)(=O)Cc1noc2ccccc12 [ZNS] | 
6 | 3210 nM | 496 nM |  | NS(=O)(=O)c1ccc(N2CCCCS2(=O)=O)cc1 [SLT, sulthiame] | 
7 |  |  |  | Nc1ccc(S(N)(=O)=O)cc1Cl [compound 8, 3-chlorosulfanilamide] | Ki [4, 6]: 79.6 nM
8 | 8650 nM | 48.1 nM |  | Nc1nnc(S(N)(=O)=O)s1 [compound 13, 5-amino-1,3,4-thiadiazole-2-sulfonamide] | 
9 |  |  |  | CC(=O)N=c1sc(S(N)(=O)=O)nn1C [MZA, methazolamide] | Ki [4, 6]: 421 nM
10 |  | 673 nM |  | CC1(C)O[C@@H]2[C@@H](CO[C@@]3(COS(N)(=O)=O)OC(C)(C)O[C@@H]23)O1 [TPM, topiramate] | Ki [4, 6]: 414 nM
11 | 4520 nM | 92.5 nM |  | NS(=O)(=O)c1ccc(CO)cc1 [compound 16, 4-hydroxymethyl-benzenesulfonamide] | 
12 |  |  | 6900 nM | Cc1ccc(S(N)(=O)=O)cc1 [compound 4] | 
13 |  |  |  | Cc1ccc(S(N)(=O)=O)cc1 [compound 4, tosylamide] | Ki [4, 6]: 47.1 nM
14 |  |  |  | Nc1ccc(S(N)(=O)=O)cc1Br [compound 9, bromosubstituted derivative 9] | Ki ([4]; pH 8.3, 20 mM TRIS, 20 mM Na2SO4, CO2 1.7-17 mM, 15 min preincubation at room temperature, read-out: KI^a (nM) / CAS1^c / β): 580 nM
15 |  | 739 nM |  | CCN[C@H]1CN(CCCOC)S(=O)(=O)c2sc(S(N)(=O)=O)cc21 [BRZ, brinzolamide] | Ki [4, 6]: 451 nM
16 |  |  |  | Cn1nc(S(N)(=O)=O)sc1=N [compound 14] | Ki ([2]; inhibitor): 7210 nM; Ki [1, 5]: 280 nM
17 | 4430 nM |  | 3730 nM | Cc1onc(-c2ccccc2)c1-c1ccc(S(N)(=O)=O)cc1 [VLX] | 
18 | 3350 nM |  | 6680 nM | NS(=O)(=O)c1cc2c(cc1Cl)NCNS2(=O)=O [HCT] | 
19 |  |  | 7360 nM | Nc1ccc(S(N)(=O)=O)cc1F [compound 7] | 
20 | 4240 nM | 216 nM |  | NS(=O)(=O)c1ccc(S(=O)(=O)Nc2cccc3c(Cl)c[nH]c23)cc1 [IND, indisulam] | 
21 | 5280 nM |  | 7070 nM | O=C1NS(=O)(=O)c2ccccc21 [SAC] | 
22 | 2510 nM | 857 nM |  | Cc1ccc(-c2cc(C(F)(F)F)nn2-c2ccc(S(N)(=O)=O)cc2)cc1 [CLX, celecoxib] | 
23 |  |  | 9120 nM | Nc1ccc(S(N)(=O)=O)cc1Cl [compound 8] | 
24 |  |  |  | Nc1ccc(S(N)(=O)=O)cc1 [compound 2, sulfanilamide] | Ki [4]: 144 nM
25 | 1220 nM |  | 5790 nM | NS(=O)(=O)c1cc(Cl)c(Cl)c(S(N)(=O)=O)c1 [DCP] | 
